Test results taken from patent US9603849B2, “Uses of orvepitant” (NERRE THERAPEUTICS LIMITED, priority 2012, dated 2017).

Target: NK-1 receptor (Meriones unguiculatus, UniProt Q5DUB1)
Experiment: GR73632-induced hindlimb scratching behaviour in the Mongolian gerbil
Assay type: in vivo
Conditions: all doses tested (from 0.1 to 10.0 mg/kg)
Description: 5) Particularly the antipruritic effect of orvepitant maleate was determinated in GR73632-induced scratching behaviour in the Mongolian gerbil. According to this metholody the scratching behaviour was induced by GR73632 which is a specific agonist of the NK-1 receptor.
72 male Mongolian gerbils (58-78 g) after a minimum habituation period of 10 days prior to study commencement, were acclimatised to the procedure room in their home cages, with food and water available ad libitum. The day before the experiment was due to commence a 1 cm×1 cm squared area between the shoulder blades was shaved free of hair.
Habituation to the apparatus (custom made observation chambers; approximately 30×30 cm; 2 animals per observation) took place 30 minutes prior to induction of scratching behaviours using GR73632.
A 10 mg/kg stock solution of orvepitant maleate was made by dissolving 20 mg of orvepitant maleate Form 1 in 20 mls of vehicle (5% DMSO & 95% HPMC (0.5%)). This stock solution was serially diluted to prepare doses of 0.1, 0.3, 1.0, 3.0 or 10 mg/kg orvepitant maleate.
At T=−60 mins mongolian gerbils were dosed with orvepitant maleate (0.1, 0.3, 1.0, 3.0 or, 10 mg/kg p.o.). Gerbils were allocated to dosing groups based on a Latin square design. 30 Minutes later (T=−30 mins) gerbils were placed into the observation chamber for 30 minutes habituation. At T=0 Gerbils were then dosed with GR73632 (30 nmol/100 uL; i.d.) between the shoulder blades and their subsequent hindlimb scratching behaviour recorded using GeoVision surveillance software over a 30 minute period.
Playing back of the video served for counting scratching behaviour. […] Cumulative frequency and duration (secs) of scratching was scored in 5 min epochs. Treatment groups were randomised based on a Latin Square design. The experimenter was blinded to the treatment groups.
Repeated measures ANOVA followed by Planned comparison test using GraphPad Prism. (p<0.05 considered significant). Data were analysed by comparing treatment groups to control group at each time point.

NK-1 receptor, sequence (Q5DUB1 whole entry): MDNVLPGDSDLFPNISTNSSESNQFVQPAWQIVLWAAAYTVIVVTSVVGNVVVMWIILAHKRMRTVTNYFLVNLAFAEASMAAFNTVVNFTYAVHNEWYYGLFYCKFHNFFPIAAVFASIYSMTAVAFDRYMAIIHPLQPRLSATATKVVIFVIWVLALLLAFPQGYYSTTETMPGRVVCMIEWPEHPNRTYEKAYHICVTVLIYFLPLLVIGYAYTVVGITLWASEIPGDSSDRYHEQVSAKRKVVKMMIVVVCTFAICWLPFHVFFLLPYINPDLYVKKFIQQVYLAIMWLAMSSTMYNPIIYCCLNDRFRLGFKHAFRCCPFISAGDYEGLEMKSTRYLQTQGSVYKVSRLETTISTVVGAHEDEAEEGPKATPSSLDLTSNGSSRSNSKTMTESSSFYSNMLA

Structure (SMILES): Cc1cc(F)ccc1[C@H]1C[C@@H](N2CCN3C(=O)CC[C@H]3C2)CCN1C(=O)N(C)[C@H](C)c1cc(C(F)(F)F)cc(C(F)(F)F)c1 [Orvepitant, 2-(R)-(4-Fluoro-2-methyl-phenyl)-4-(S)-((8aS)-6-oxo-hexahydro-pyrrolo[1,2-a]-pyrazin-2-yl)-piperidine-1-carboxylic acid [1-(R)-(3,5-bis-trifluoromethyl-phenyl)-ethyl]-methylamide]
- inhibition of GR73632 induced hindlimb scratching: profound inhibition
